Source: patent US20230310531A1, “TRIPTERYGIUM WILFORDII COMPOSITION FOR INHIBITING DRUG-RESISTANT CANCER, AND PREPARATION METHOD AND USE THEREOF” (HUAQIAO UNIVERSITY, priority 2022, published 2023)
Like-named read-outs stand apart in the source and are kept apart here.

Assays:
Format in all cases: cell-based, human
H460/DDP cells = experiment: MTT cell proliferation inhibition, H460/DDP cells; details: for IC50: H460/DDP cells; for Combination index (CI): H460/DDP
Description: (§1) The cisplatin-resistant cells of non-small cells, lung cancer cells A549 and H1299 and human large cells, lung cancer cells H460 (that is, A549/DDP, H1299/DDP, and H460/DDP), as well as normal human lung bronchial epithelial cells 16HBE were used as cultured cells. All the cells were cultured with a PRMI-1640 complete medium at 37° C. with a CO2 concentration of 5%. Three kinds of cell models were established by culturing the above cells to a certain amount.
(§2) The three kinds of cells in a logarithmic growth phase obtained in step 1 were separately inoculated in a 96-well plate at a density of 5×10^4 cells/mL. 90 μL of the cells were added to each well, and a complete medium as a blank control group, a DMSO negative control, a TP positive control, and experimental groups with different concentrations of compounds were set up. Three replicate wells were set up in each group, and the cells were cultured in a carbon dioxide incubator for 24 h. Drugs were added in a volume of 10 μl to each well, such that final concentrations were 10 μg/ml, 20 μg/ml, 30 μg/ml, 40 μg/ml, and 50 μg/ml. After culturing for 24 h, 48 h, and 72 h, 10 μl of an MTT solution was added to each well. After incubation for 4 h, the medium in each well was aspirated, and 100 μl of DMSO was added. The culture plate was placed in a microplate reader and shaken for 5 min to dissolve crystals. The cells were put into a microplate reader for detection, and a detection wavelength was set to OD=490 nm and a reference wavelength OD=630 nm to measure an absorbance of each well.
(§3) Relative cell viability (%)=((OD value of drug experimental group−OD value of blank control group)/(OD value of negative control group−OD value of blank control group))×100%.
(§4) Relative cell inhibition rate (%)=(1−relative cell viability)×100%.
(§5) The formula for calculating a combination index (CI) was as follows: […]
(§6) In the formula, (Dx)1, (Dx)2, and (Dx)3 represented the drug doses used alone, while (D)1, (D)2, and (D)3 represented the […] contributed by the respective drugs in the combination. […] When CI<1, there was a synergistic effect; when CI>1, there was an antagonistic effect; and when CI=1, there was […].
(§7) A calculation method of IC50 was as follows: SPSS software was used for calculation: after entering the SPSS data editor, the (Variable View) was activated to define variables, and under the variable name (Name), informations were input as follows: “dose/concentration”, “inhibition rate”, “total value”. A parameter Analysis Regression Probit was selected, the “Probit Analysis” dialog box was brought up, the “Dose/Concentration” was selected into the “Covariates” column, the “Inhibition Rate” was selected into the “Response Frequency” column, and the “Total Value” was selected into the “Total Observed” column. In the “Transform” column, “Log base 10” was selected; in the “Mode 1” column, the “Probit” probability unit model was selected; and in the “Options” column, “Calculate from Data” was selected.
The experimental design, the five compounds, and a method for determining the inhibitory effect on cisplatin-resistant cells H460/DDP were the same as those in Example 1.

A549/DDP cells = experiment: MTT cell proliferation inhibition, A549/DDP cells; details: for cell inhibition rate increased, two drugs combined compared with the single drug group: TP 4 μg/ml plus compound (E 1, H 11, I 0.9, J 2, P 20 μg/ml), equal volume ratio; for IC50: compound alone
Description: as §1, §2, §3, §4, §5, §6, §7
When drugs were used in combination, the TP was compatible with any one or any two of the compounds E, H, I, J, and P separately in an equal volume ratio.

H1299/DDP cells = experiment: MTT cell proliferation inhibition, H1299/DDP cells; details: for Combination index (CI) / drug effect increased compared with TP alone: H1299/DDP; for drug effect increased compared with TP alone: used in combination with the TP
Description: as §1, §2, §3, §4, §5, §6, §7
The experimental design, the five compounds, and a method for determining the inhibitory effect on cisplatin-resistant cells H1229/DDP were the same as those in Example 1.

[1] = 48 h, compound alone (FIGS. 1A-R)
[2] = 48 h, TP 2.5 μg/ml, compound at higher dose (E 2, H 22, I 1.8, J 4, P 40 μg/ml)
[3] = 48 h, TP 2.5 μg/ml, compound at lower dose (E 1, H 11, I 0.9, J 2, P 20 μg/ml)
[4] = 48 h, TP 5 μg/ml, compound at higher dose (E 2, H 22, I 1.8, J 4, P 40 μg/ml)
[5] = 48 h, TP 5 μg/ml, compound at lower dose (E 1, H 11, I 0.9, J 2, P 20 μg/ml)
[6] = A549/DDP, TP 2.5 μg/ml, compound at higher dose (E 2, H 22, I 1.8, J 4, P 40 μg/ml)
[7] = A549/DDP, TP 2.5 μg/ml, compound at lower dose (E 1, H 11, I 0.9, J 2, P 20 μg/ml)
[8] = A549/DDP, TP 5 μg/ml, compound at higher dose (E 2, H 22, I 1.8, J 4, P 40 μg/ml)
[9] = A549/DDP, TP 5 μg/ml, compound at lower dose (E 1, H 11, I 0.9, J 2, P 20 μg/ml)
[10] = Homo sapiens, NCI-H460, 48 h, compound alone (FIGS. 1A-R), read-out: IC50
[11] = Homo sapiens, A549 cells (A549/DDP per FIG. 2 legend), 48 h, read-out: IC50
[12] = Homo sapiens, NCI-H1299, H1299/DDP, in combination with TP 2.5 μg/ml, read-out: IC50 concentrations doses
[13] = Homo sapiens, NCI-H1299, H1299/DDP, in combination with TP 5 μg/ml, read-out: IC50 concentrations doses

Row | Compound | IC50 (H460/DDP cells; [1]) [µg/mL] | Combination index (CI) (H460/DDP cells; [2]) | Combination index (CI) (H460/DDP cells; [3]) | Combination index (CI) (H460/DDP cells; [4]) | Combination index (CI) (H460/DDP cells; [5]) | cell inhibition rate increased, two drugs combined compared with the single drug group (A549/DDP cells; A549/DDP, 48 h) [times] | Combination index (CI) (A549/DDP cells; [6]) | Combination index (CI) (A549/DDP cells; [7]) | Combination index (CI) (A549/DDP cells; [8]) | Combination index (CI) (A549/DDP cells; [9]) | Combination index (CI) (H1299/DDP cells; [2]) | Combination index (CI) (H1299/DDP cells; [3]) | Combination index (CI) (H1299/DDP cells; [4]) | drug effect increased compared with TP alone (H1299/DDP cells) [times] | Combination index (CI) (H1299/DDP cells; [5]) | IC50 (H460/DDP cells; [10]) [µg/mL] | IC50 (A549/DDP cells; [11]) [µg/mL] | IC50 (H1299/DDP cells; [12]) [µg/mL] | IC50 (H1299/DDP cells; [13]) [µg/mL] | further results
1 | CC(=O)OCC12C(OC(=O)C=Cc3ccccc3)CCC(C)(O)C13OC(C)(C)C(C(OC(C)=O)C2OC(=O)c1cccnc1)C3OC(C)=O (stereo not drawn) [Compound E, 1β-(E-cinnamoyloxy)-4a-hydroxy-5a,7β,11-triacetoxy-8β-nicotinoyloxy-dihydroagarofuran] | 1.98 | 0.6604 | 1.4669 | 0.5008 | 1.1134 | 2.01 | 1.1269 | 0.8986 | 1.1213 | 0.8688 | 1.1646 | 0.7473 | 0.8025 | 2.15 |  |  |  |  |  | IC50 (H460/DDP cells; 48 h, compound alone (FIGS. 7A-E)): 0.58 µg/mL; IC50 (A549/DDP cells; A549 cells (A549/DDP per FIG. 2 legend), 48 h): 5.03 µg/mL
2 | C[C@@]1(C(=O)O)CC[C@]2(C)CC[C@]3(C)C4=CC(=O)c5c(cc(O)c(O)c5C=O)[C@]4(C)CC[C@@]3(C)[C@@H]2C1 [Compound H, Demethylzeylasteral] | 22.31 | 0.5569 | 0.7051 | 0.4270 | 0.6318 | 1.54 | 0.7225 | 0.8749 | 0.7206 | 1.1462 | 0.9651 | 0.8151 | 0.8689 | 2.12 |  |  |  |  |  | 
3 | CC(C)c1ccc2c(c1)CCC1C(C)(CO)C(=O)CCC21C (stereo not shown) [Compound I, Triptobenzene R] | 1.893 | 1.2499 | 1.1241 | 0.7619 | 0.9327 | 1.81 | 0.8583 | 1.3864 | 0.8288 | 0.8316 | 1.1259 | 0.7373 | 1.1503 |  | 0.8353 |  |  |  |  | inhibitory effect compared with TP (A549/DDP cells; A549/DDP, 48 h, compound alone (FIGS. 3A-E)): better inhibitory effect on cells than that of the TP; IC50 (H1299/DDP cells; H1299 cells (H1299/DDP per FIG. 2 legend), 48 h, compound alone): 8.61 µg/mL
4 | CC(C)c1ccc2c(c1)C(=O)C[C@H]1[C@@](C)(CO)[C@@H](O)CC[C@]21C [Compound J, (3S,4S,5R,10S)-3,19-dihydroxy-7-ox-oabieta-8,11,13-triene] |  | 0.3260 | 0.5384 | 0.3064 | 0.6519 | 1.58 | 0.9025 | 0.9333 | 0.9982 | 0.6952 | 0.9855 | 0.6741 | 0.5884 |  | 0.6735 | 4.32 | 6.92 | 1.84 | 0.9 | IC50 (H460/DDP cells; Homo sapiens, NCI-H460, 48 h, compound alone (FIGS. 7A-E), read-out: IC50): 0.61 µg/mL; inhibition rate of combination with TP, times higher than TP alone (A549/DDP cells; A549/DDP, combination with TP): 1.32 times
5 | CC(C)c1ccc2c(c1O)CC[C@H]1C(C)(C)[C@@H](O)CC[C@]21C [Compound P, Triptobenzene B] |  | 0.1961 | 0.2435 | 0.2976 | 0.3777 | 1.34 | 1.2660 | 1.0764 | 1.4985 | 1.1918 | 1.1079 | 1.7041 | 0.9326 |  | 0.6521 | 39.2 | 6.72 | 12 | 11 | IC50 (H1299/DDP cells; Homo sapiens, NCI-H1299, 48 h, H1299/DDP cells, 48 h, compound alone (FIGS. 5A-E), read-out: IC50): 12.8 µg/mL
6 | CC(C)[C@]12O[C@H]1[C@@H]1O[C@]13[C@]1(O[C@H]1C[C@H]1C4=C(CC[C@@]13C)C(=O)OC4)[C@@H]2O [TP, triptolide, reference compound] |  |  |  |  |  |  |  |  |  |  |  |  |  |  |  | 1.97 |  |  |  | IC50 (A549/DDP cells; Homo sapiens, A549/DDP, A549DDP cells, read-out: IC50 value of A549DDP cells used as a synergistic dose): 7.83 µg/mL
